Results on 19 molecules are retold here after patent US8299056B2 (Signal Pharmaceuticals, LLC, priority 2008, dated 2012).

The target in this test is T1, Syk (Homo sapiens, UniProt P43405).
T1 construct: purchased Carna Biosciences
Nature of the test: Syk HTRF assay. It is filed as biochemical. The settings on record: read-out: Activity Level (Syk HTRF assay IC50). The method, boiled down: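 Read-out is the 665 nm/615 nm time-resolved fluorescence ratio after EDTA stop and Eu-anti-phosphotyrosine plus streptavidin-DyLight 647 detection. Reaction ran 1 h at room temperature with start mix of 87.5 μM ATP and 80 nM substrate peptide in pH 7.6 HEPES/MgCl2 buffer.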
On the technique in general: Time-resolved FRET reads energy transfer from a long-lived donor to a nearby acceptor.
What is called IC50 is the concentration that inhibits the measured activity by half. `CC(=O)N1CCc2cc(Nc3nc4cccc(-c5ccccc5)n4n3)ccc21` [compound 60, 1-(5-(5-phenyl-[1,2,4]triazolo[1,5-a]pyridin-2-ylamino)indolin-1-yl)ethanone]: the IC50 lay within 0.005 to 250 nM. Then `c1ccc(-c2cccc3nc(Nc4ccc5[nH]ncc5c4)nn23)cc1` [compound 61], with 0.005 to 250 nM; and `c1ccc(Nc2nc3cccc(-c4cccc(-c5ncn[nH]5)c4)n3n2)cc1` [compound 62, 5-(3-(1H-1,2,4-triazol-5-yl)phenyl)-N-phenyl-[1,2,4]triazolo[1,5-a]pyridin-2-amine], with 250 to 500 nM.

As for `N#Cc1cccc(-c2cccc3nc(Nc4ccc(C(N)=O)cc4)nn23)c1` [compound 63, 4-(5-(3-cyanophenyl)-[1,2,4]triazolo[1,5-a]pyridin-2-ylamino)benzamide], the IC50 was in the range of 250 to 500 nM. Take `NC(=O)c1ccc(Nc2nc3cccc(-c4cccc(O)c4)n3n2)cc1` [compound 64, 4-(5-(3-hydroxyphenyl)-[1,2,4]triazolo[1,5-a]pyridin-2-ylamino)benzamide]: the IC50 was 0.005 to 250 nM.

As to `NC(=O)c1cc(Nc2nc3cccc(-c4ccccc4)n3n2)ccc1F` [compound 65, 2-fluoro-5-(5-phenyl-[1,2,4]triazolo[1,5-a]pyridin-2-ylamino)benzamide], the IC50 was 1000 to 10000 nM. Then `N#Cc1cccc(Nc2nc3cccc(-c4ccccc4)n3n2)c1` [compound 66, 3-(5-phenyl-[1,2,4]triazolo[1,5-a]pyridin-2-ylamino)benzonitrile], with 1000 to 10000 nM.

For the molecule `NC(=O)c1cccc(Nc2nc3cccc(-c4ccccc4)n3n2)c1` [compound 67, 3-(5-phenyl-[1,2,4]triazolo[1,5-a]pyridin-2-ylamino)benzamide], the IC50 lay in the range of 500 to 1000 nM. Then `c1ccc(-c2cccc3nc(Nc4ccc5cn[nH]c5c4)nn23)cc1` [compound 68], with 0.005 to 250 nM; and `O=C1NCc2cc(Nc3nc4cccc(-c5ccccc5)n4n3)ccc21` [compound 69, 5-(5-phenyl-[1,2,4]triazolo[1,5-a]pyridin-2-ylamino)isoindolin-1-one], with 250 to 500 nM; and `Oc1ccc(Nc2nc3cccc(-c4ccccc4)n3n2)cn1` [compound 70, 5-(5-phenyl-[1,2,4]triazolo[1,5-a]pyridin-2-ylamino)pyridine-2-ol], with 1000 to 10000 nM. Then `COc1ccc(Nc2nc3cccc(-c4ccccc4)n3n2)cn1` [compound 71, N-(6-methoxypyridin-3-yl)-5-phenyl-[1,2,4]triazolo[1,5-a]pyridin-2-amine], with 1000 to 10000 nM; and `NC(=O)c1ccc(Nc2nc3cccc(-c4ccccc4)n3n2)cn1` [compound 72, 5-(5-phenyl-[1,2,4]triazolo[1,5-a]pyridin-2-ylamino)picolinamide], with 1000 to 10000 nM; and `NC(=O)c1ccc(Nc2nc3cccc(-c4ccccc4)n3n2)cc1F` [compound 73, 2-fluoro-4-(5-phenyl-[1,2,4]triazolo[1,5-a]pyridin-2-ylamino)benzamide], with 1000 to 10000 nM.

As for `c1ccc(-c2cccc3nc(Nc4cncnc4)nn23)cc1` [compound 74, 5-phenyl-N-(pyrimidin-5-yl)-[1,2,4]triazolo[1,5-a]pyridin-2-amine], the IC50 lay within 1000 to 10000 nM. Then `c1ccc(-c2cccc3nc(Nc4cccnc4)nn23)cc1` [compound 75, 5-phenyl-N-(pyridin-3-yl)-[1,2,4]triazolo[1,5-a]pyridin-2-amine], with 500 to 1000 nM; and `N#Cc1ccc(-c2cccc3nc(Nc4ccccc4)nn23)cc1` [compound 76, 4-(2-(phenylamino)-[1,2,4]triazolo[1,5-a]pyridin-5-yl)benzonitrile], with 1000 to 10000 nM; and `O=C(NC1CCNCC1)c1ccc(Nc2nc3cccc(-c4ccccc4)n3n2)cc1` [compound 77, 4-(5-phenyl-[1,2,4]triazolo[1,5-a]pyridin-2-ylamino)-N-(piperidin-4-yl)benzamide], with 0.005 to 250 nM. Then `CC(=O)Nc1cccc(-c2cccc3nc(Nc4ccccc4)nn23)c1` [compound 78, N-(3-(2-(phenylamino)-[1,2,4]triazolo[1,5-a]pyridin-5-yl)phenyl)acetamide], with 1000 to 10000 nM.
